Assay results published in ChEMBL document CHEMBL2062361, “Synthesis and antiproliferative evaluation of some new amidino-substituted bis-benzothiazolyl-pyridines and pyrazine” (Eur J Med Chem, 2012).

Experiments:
[1] = tested on: SW-620; test: Antiproliferative activity against human SW620 cells after 72 hrs by MTT assay; type: functional, cell-based; details: SW-620, 72 h
[2] = tested on: MIA PaCa-2; test: Antiproliferative activity against human MIAPaCa2 cells after 72 hrs by MTT assay; type: functional, cell-based; details: MIA PaCa-2, 72 h
[3] = tested on: HeLa; test: Antiproliferative activity against human HeLa cells after 72 hrs by MTT assay; type: functional, cell-based
[4] = tested on: MCF7; test: Antiproliferative activity against human MCF7 cells after 72 hrs by MTT assay; type: functional, cell-based; details: MCF7, 72 h
[5] = tested on: SK-BR-3; test: Antiproliferative activity against human SK-BR-3 cells after 72 hrs by MTT assay; type: functional, cell-based; details: SK-BR-3, 72 h
[6] = tested on: BJ; test: Antiproliferative activity against human BJ cells after 72 hrs by MTT assay; type: cell-based

| Structure (SMILES) | IC50 [1] [µM] | IC50 [2] [µM] | IC50 [3] [µM] | IC50 [4] [µM] | IC50 [5] [µM] | IC50 [6] [µM] |
| --- | --- | --- | --- | --- | --- | --- |
| N=C(N)c1ccc2nc(-c3cncc(-c4nc5ccc(C(=N)N)cc5s4)c3)sc2c1 | > 100 | 86.7 | > 100 | > 100 | > 100 | 15 |
| c1cc2nc(-c3cnc(-c4nc5ccc(C6=NCCN6)cc5s4)cn3)sc2cc1C1=NCCN1 | 1.8 | 5.1 | 1.9 | 1.2 | 0.9 | 0.07 |
| c1cc2nc(-c3ccc(-c4nc5ccc(C6=NCCN6)cc5s4)nc3)sc2cc1C1=NCCN1 | 2.8 | 4.4 | 3.4 | 4.4 | 3.4 | 0.34 |

The next lines start with results.

| IC50 [1] [µM] | IC50 [2] [µM] | IC50 [3] [µM] | IC50 [4] [µM] | IC50 [5] [µM] | Structure (SMILES) | IC50 [6] [µM] |
| --- | --- | --- | --- | --- | --- | --- |
| > 100 | 61.1 | > 100 | 78.9 | > 100 | N=C(N)c1ccc2nc(-c3ccnc(-c4nc5ccc(C(=N)N)cc5s4)c3)sc2c1 | 2.92 |
| 0.42 | 6.6 | 0.3 | 0.9 | 0.5 | c1cc2nc(-c3cncc(-c4nc5ccc(C6=NCCN6)cc5s4)c3)sc2cc1C1=NCCN1 | 0.16 |
